From the METLIN SMRT retention time set (Domingo-Almenara et al. 2019)

Assay: gradient 5% acetonitrile 3 min, to 50% in 2 min, to 85% in 15 min, held 3 min, 100 µL/min
Settings: column: Zorbax Extend-C18 2.1 x 50 mm; eluents: water / acetonitrile, 0.1% formic acid
Summary of the method: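 A Zorbax Extend-C18 column (2.1 × 50 mm, 1.8 μm) run at 100 μL/min with water and acetonitrile, both containing 0.1% formic acid, separated mixtures of ~100 pure standards. The HPLC was coupled to a quadrupole time-of-flight mass spectrometer operated in positive and negative ionization mode, with dead and dwell volumes of 40 μL and 900 μL. Each retention time was taken from a computationally picked adduct peak that was then manually inspected.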

| Structure (SMILES) | RP-LC retention time [s] |
| --- | --- |
| Oc1c(Cl)cc(Cl)c2cccnc12 | 1020 |
| CCCCn1c(=O)c2ccccc2n(Cc2nc(-c3ccc(OC)c(OC)c3)no2)c1=O | 1060 |
| O=C(Oc1ccccc1)N1CCC(CNC(=O)C2(c3ccccc3)CCOCC2)CC1 | 816 |
| O=C(c1cc2ccccc2[nH]1)N1CCC(Cn2c(C(F)(F)F)nc3ccccc32)CC1 | 881 |
| O=C(CCc1c(-c2ccccc2)nc2ccccn12)Nc1ccccc1Cl | 668 |
| CCCn1cc(S(=O)(=O)Nc2cccc(OC)c2)c2cccnc21 | 840 |
| O=C(CNC(=O)Cc1ccc(Cl)cc1)NCC(=O)N1CCCc2ccccc21 | 770 |
| CC1(C)CC(=O)c2cn(-c3ccccc3)c(=O)c(C(=O)Nc3cccc(C#N)c3)c2C1 | 1030 |
| Cc1ccc(-n2nc(C)c(S(=O)(=O)N3CCN(c4ccccn4)CC3)c2C)cc1 | 721 |
| Cc1cc(S(=O)(=O)N2CCn3c(nnc3C3CCN(C(C)C)C3)C2)ccc1Cl (stereo not given) | 637 |
| CCCNc1cc(N2CCC(CCC(=O)NC(C)C)CC2)ncn1 | 602 |
| Cc1cc(C)nc(SCC(=O)Nc2cccc3ccccc23)n1 | 779 |
| Cc1noc(C)c1-c1ccc(S(=O)(=O)N2CCCCCC2)cc1 | 1020 |
| CCc1nc2cc(N3CCC(C(=O)N(CC)CC)CC3)cnc2nc1CC | 712 |
| Cc1ccccc1CC(=O)Nc1cc(-c2cccs2)no1 | 969 |
| Cn1ncc2c(N3CCOCC3)nc(C(=O)NCc3ccccc3)nc21 | 701 |
| O=C(NCc1nc(-c2ccc3c(c2)Sc2ccccc2C(=O)N3C2CC2)no1)c1ccco1 | 861 |
| Cc1nc(OCC(=O)NCc2ccc3c(c2)OCO3)c2ccccc2n1 | 698 |
| Cc1ccc(-c2nnc(COc3cccc(NC(=O)c4n[nH]c5c4CCCC5)c3)o2)cc1 | 1010 |
| Cc1ccc2nc(CN3CCN(C(=O)NCc4ccc(F)cc4)CC3)oc2c1 | 690 |
| CN1c2cc(C(=O)NC3CCCC3)ccc2C(=O)N2CCCCC21 (stereo not given) | 767 |
| CCN1CCCC1CNC(=O)C1CCN(S(=O)(=O)c2ccc(-c3noc(C4CC4)n3)cc2)CC1 (stereo not given) | 679 |
| Cc1cccc(N2CCN(C(=O)C3=CCN(Cc4ccccc4)CC3)CC2)c1 | 681 |

| Structure (SMILES) | RP-LC retention time [s] |
| --- | --- |
| O=c1c2sccc2n(Cc2nc(-c3ccc(F)cc3)no2)c(=O)n1CCc1ccccc1 | 1140 |
| CCC(=O)Nc1ccc2c(c1)CN(C(=O)c1ccccc1F)C(C(=O)N1CCCC1)C2 (stereo not given) | 672 |
| CCc1nc2cc(-c3noc(-c4ccc(C)c(NC(C)=O)c4)n3)ccc2o1 | 895 |
| O=C(Nc1nc(-c2cccc3ccccc23)cs1)c1ccncc1 | 904 |
| COc1ccc(C(=O)N2CCC(COCc3ccccc3)CC2)cc1 | 915 |
| O=C(CN1C(=O)c2ccccc2C1=O)N1CCCN(c2nc3ncccc3o2)CC1 | 681 |
| O=C(Nc1cccn2c(C3CCC3)nnc12)c1ccncc1 | 665 |
| CCOc1ccc(N2CC(c3nc(-c4ccc(Cl)cc4)no3)CC2=O)cc1 (stereo not given) | 1080 |
| COc1ccccc1Nc1c(-c2ccc(N(C)C)cc2)nc2cnccn12 | 833 |
| CCOc1cc2ncc(C#N)c(Nc3ccc(F)c(Cl)c3)c2cc1NC(=O)/C=C/CN(C)C | 727 |
| CCCCNc1nc(-c2ccc(Cl)cc2)nc2ccccc12 | 873 |
| COc1ccc(-c2noc(C3CCCN3C(=O)Nc3ccc(OC)c(Cl)c3)n2)cc1 (stereo not given) | 974 |
| Cc1nn2c(CNC(=O)c3ccco3)c(-c3ccccc3)nc2s1 | 728 |
| CC1CCN(S(=O)(=O)N2CCCC(C(=O)Nc3ccccc3C(=O)c3ccccc3)C2)CC1 (stereo not given) | 963 |
| COCCCNC(=O)N1CCCN(c2nc3cc(F)ccc3n3cccc23)CC1 | 613 |
| O=C(NC1CCCC1)c1nc(C(=O)N2CCN(c3ccccc3)CC2)cs1 | 897 |
| O=C(NCc1ccccc1F)c1cn2cc(Cl)ccc2n1 | 723 |
| Cc1ccc(NC(=O)Cn2nc(N3CCCC3)c3ccccc3c2=O)cc1 | 938 |
| CCNc1nc(C)cc(N2CCN(S(=O)(=O)c3ccc(Cl)c(Cl)c3)CC2)n1 | 770 |
| Cc1ccc(C)c(NC(=O)CN2C(=O)NC3(CCC(C)CC3)C2=O)c1 (stereo not given) | 777 |
| CCOC(=O)C(=O)Nc1ccc(OC)c(OC)c1 | 650 |
| O=c1n(Cc2cccc(Br)c2)nc2c(S(=O)(=O)N3CCCCCC3)cccn12 | 1010 |
